For this assay, the target named is T1, EmCyclinD-EmCDK4/6 complex (Echinococcus multilocularis, UniProt A0A068YJR9).
T1 construct: gene EmuJ_001021000
T1 sequence (A0A068YJR9 1-711): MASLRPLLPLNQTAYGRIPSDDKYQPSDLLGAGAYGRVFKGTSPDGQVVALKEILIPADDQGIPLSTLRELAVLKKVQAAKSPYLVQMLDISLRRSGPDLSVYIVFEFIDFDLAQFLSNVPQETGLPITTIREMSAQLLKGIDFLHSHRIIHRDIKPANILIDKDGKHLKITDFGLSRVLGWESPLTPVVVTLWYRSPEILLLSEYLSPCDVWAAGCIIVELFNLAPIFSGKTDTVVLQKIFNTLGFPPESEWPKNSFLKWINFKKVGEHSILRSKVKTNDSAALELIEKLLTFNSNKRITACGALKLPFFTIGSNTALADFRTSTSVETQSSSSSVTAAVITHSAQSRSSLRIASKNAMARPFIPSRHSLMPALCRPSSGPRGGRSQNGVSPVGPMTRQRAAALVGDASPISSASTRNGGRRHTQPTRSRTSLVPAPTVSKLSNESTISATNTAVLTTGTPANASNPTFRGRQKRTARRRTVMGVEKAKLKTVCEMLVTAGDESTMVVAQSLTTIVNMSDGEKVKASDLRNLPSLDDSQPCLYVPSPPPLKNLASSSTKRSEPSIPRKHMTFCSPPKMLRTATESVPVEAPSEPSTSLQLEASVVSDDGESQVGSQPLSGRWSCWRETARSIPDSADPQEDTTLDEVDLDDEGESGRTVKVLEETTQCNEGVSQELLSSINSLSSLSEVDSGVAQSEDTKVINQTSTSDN
T1 sequence (A0A068Y4X2 1-386 partner): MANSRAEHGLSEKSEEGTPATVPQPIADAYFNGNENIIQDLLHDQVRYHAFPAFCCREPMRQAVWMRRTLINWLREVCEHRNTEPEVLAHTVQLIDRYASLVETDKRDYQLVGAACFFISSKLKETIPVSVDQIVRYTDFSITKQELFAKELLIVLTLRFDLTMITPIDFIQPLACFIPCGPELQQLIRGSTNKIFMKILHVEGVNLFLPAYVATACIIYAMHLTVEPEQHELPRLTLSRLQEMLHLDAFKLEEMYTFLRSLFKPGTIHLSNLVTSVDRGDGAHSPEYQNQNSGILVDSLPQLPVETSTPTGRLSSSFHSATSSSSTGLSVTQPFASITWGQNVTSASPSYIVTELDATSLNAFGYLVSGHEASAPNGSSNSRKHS
The note with it: human Rb1 substrate (3 ug); 25 uM ATP, 20 mM MgCl2, 1 mM DTT, pH 7.5, RT, 20 min.

Take `Nc1ncnc2c1ncn2[C@@H]1O[C@H](COP(=O)(O)OP(=O)(O)OP(=O)(O)O)[C@@H](O)[C@H]1O` [ATP]: the kinase activity result was “the EmCDK4/6-EmCyclinD complex displayed kinase activity against human Rb1”.

The values above are taken from paper PMC9410764, “EmCyclinD-EmCDK4/6 complex is involved in the host EGF-mediated proliferation of Echinococcus multilocularis germinative cells via the EGFR-ERK pathway” (Frontiers in Microbiology, 2022).
